≈ marks a conversion by molar mass, not a printed value. Where a SMILES comes first, the peptide text is derived from it. Bridges are numbered along the chain shown (N, C = ends). Roman numbers before positions name the chains, in order. [ ]: non-standard residue; d: D form. Tle = CC(C)(C)[C@H](N)C(=O)O; dDab = NCC[C@@H](N)C(=O)O; Dab = NCC[C@H](N)C(=O)O; Abu = CC[C@H](N)C(=O)O; Dap = NC[C@H](N)C(=O)O Where only a bound is given, the exact number is not on record here.

The test system of data set [1] is human red blood cells (hRBC). Kind of data set: Hemolysis. Format: cell-based. The note with it: red cells of human, 1 h, 200. The method, boiled down:
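hRBC washed 4× in PBS; 200 μg/mL peptide + 20% (v/v) hRBC, 1 h, 37° C, 300 rpm. Spin, supernatant ~7.5-fold diluted, OD540 blank corrected. % hemolysis = OD540 peptide / OD540 Triton X-100 × 100.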

In data set [2] the test system is Acinetobacter baumannii 872842. It is filed as cell-based. The note with it: 872842. The procedure, abridged: (§1)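 MIC in μg/mL, read as no visible growth after 18-20 hours at 35° C. Peptides were serially diluted two-fold in MH-II broth plus P-80 (0.002% final, v/v) and inoculated at about 10^6 CFU/mL following the CLSI broth microdilution standard.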
Data set [3] has as its system Klebsiella pneumoniae SSI #3010. Format: cell-based. The note with it: SSI #3010. The method, boiled down: as §1
The test system of the next data set is Escherichia coli 926415. Format: cell-based. The note with it: 926415. The procedure, abridged: as §1
The subject of data set [4] is Acinetobacter baumannii DSM 30008. Format: cell-based. The note with it: DSM 30008. The procedure, abridged:
as §1

The test system of data set [5] is Klebsiella pneumoniae 968733. It is filed as cell-based. The note with it: 968733. The procedure, abridged: as §1
For data set [6], the system named is Enterobacter cloacae 848840. It is filed as cell-based. The note with it: 848840. The procedure, abridged: as §1
Data set [7] relates to Pseudomonas aeruginosa ATCC 27853. Format: cell-based. The note with it: ATCC 27853. The procedure, abridged: as §1
In data set [8] the test system is Escherichia coli ATCC 25922. Format: cell-based. The note with it: ATCC 25922. The method, boiled down:
as §1

A further data set has as its system male ICR mice. Nature of the data set: Tolerability in a mouse model (Maximum Tolerated Dose assay). The note with it: groups of 3. It is filed as in vivo. The method, boiled down: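 Groups of 3 male ICR mice weighing 23±3 g received two subcutaneous doses, 12 h apart, of 30 or 40 mg/kg in saline adjusted to pH 6.5-7.6. Observation for 30 min after each dose covered autonomic effects and acute toxicity, including death.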

Where [9] appears, read: 2 × 40 mg/kg s.c. at a 12-hr interval.

What is called MIC is the least concentration at which growth counts as inhibited. Take `CC(=O)N[C@H](C(=O)N[C@H]1CSSC[C@@H](C(=O)N[C@@H](CO)C(N)=O)NC(=O)[C@H](C(C)(C)C)NC(=O)[C@H](CO)NC(=O)[C@H](Cc2c[nH]c3ccccc23)NC(=O)[C@H](CO)NC(=O)[C@@H](CCN)NC(=O)[C@H](CCC(=O)N[C@@H](CCN)C(=O)N[C@H](C(=O)N[C@@H](CN)C(=O)N[C@H]2CCNC(=O)[C@H]([C@@H](C)O)NC(=O)[C@H](CCN)NC(=O)[C@H](CCN)NC(=O)[C@H](CC(C)C)NC(=O)[C@@H](CC(C)C)NC(=O)[C@H](CCN)NC2=O)[C@@H](C)O)NC(=O)[C@H](CCN)NC(=O)[C@H](Cc2ccc(O)cc2)NC1=O)C(C)C` [Ex. 114] (I: Ac-VCY[Dab]E[dDab]SWS[Tle]CS-NH2 / II: [Dab]T[Dap][Dab][Dab][dL]L[Dab][Dab]T; disulfide I:2-I:11; amide I:5-II:N; lactam II:4-II:C): the “Hemolysis at 200 μg/mL” value in data set [1] is less than 1%. The MIC came out at 0.03125 µg/mL (≈ 0.013 µM) in data set [2]; 0.0625 µg/mL (≈ 0.0259 µM) in data set [3]; 0.0625 µg/mL (≈ 0.0259 µM) in the data set with Escherichia coli 926415; 0.0625 µg/mL (≈ 0.0259 µM) in data set [4]; 0.0625 µg/mL (≈ 0.0259 µM) in data set [5]; 0.0625 µg/mL (≈ 0.0259 µM) in data set [6]. Besides, the MIC in data set [7] amounted to 0.125 µg/mL (≈ 0.0518 µM); in data set [8] it was 0.03125 µg/mL (≈ 0.013 µM). Further, the Mortality and dose with male ICR mice (2 × 30 mg/kg s.c. at a 12-hr interval) was 0/3 died at 2 × 30 mg/kg.
Regarding `CC[C@@H]1NC(=O)[C@@H](CC(C)C)NC(=O)[C@H](CCN)NC(=O)[C@@H](NC(=O)[C@H](CN)NC(=O)[C@@H](NC(=O)[C@H](CCN)NC(=O)CC[C@@H]2NC(=O)[C@H](CCN)NC(=O)[C@H](Cc3ccc(O)cc3)NC(=O)[C@@H](NC(=O)[C@@H](NC(C)=O)C(C)C)CSSC[C@@H](C(=O)N[C@@H](CO)C(N)=O)NC(=O)[C@H]([C@@H](C)CC)NC(=O)[C@H](CO)NC(=O)[C@H](Cc3c[nH]c4ccccc34)NC(=O)[C@H](CCN)NC(=O)CNC2=O)[C@@H](C)O)CCNC(=O)[C@H]([C@@H](C)O)NC(=O)[C@H](CCN)NC(=O)[C@H](CCN)NC1=O` [Ex. 299] (I: Ac-VCY[Dab]EG[Dab]WSICS-NH2 / II: [Dab]T[Dap][Dab][Dab][dL][Abu][Dab][Dab]T; disulfide I:2-I:11; amide I:5-II:N; lactam II:4-II:C), the “Hemolysis at 200 μg/mL” value in data set [1] is listed as less than 1%. Also, the MIC in data set [2] stood at 0.125 µg/mL (≈ 0.0531 µM); in the data set on Escherichia coli 926415, 0.25 µg/mL (≈ 0.106 µM); in [5] it was 0.5 µg/mL (≈ 0.212 µM); in data set [6] it was 0.125 µg/mL (≈ 0.0531 µM). The “Klebsiella pneumoniae SSI #3010 MIC” value in data set [3] came to 0.0625 µg/mL. Further, in [4], the “Acinetobacter baumannii DSM 30008 MIC” value stood at 0.0625 µg/mL. Moreover, the “Pseudomonas aeruginosa ATCC 27853 MIC” value in data set [7] is 0.25 µg/mL. Besides, in data set [8], the “Escherichia coli ATCC 25922 MIC” value turned out to be 0.0625 µg/mL. In addition, the Mortality and dose with male ICR mice (setting [9]) was 0/3 died at 2 × 40 mg/kg.
`CC(=O)N[C@H](C(=O)N[C@H]1CSSC[C@@H](C(=O)N[C@@H](CO)C(N)=O)NC(=O)[C@H](C(C)C)NC(=O)[C@H](CO)NC(=O)[C@H](Cc2c[nH]c3ccccc23)NC(=O)[C@H](CCC(=O)N[C@@H](CCN)C(=O)N[C@H](C(=O)N[C@@H](CN)C(=O)N[C@H]2CCNC(=O)[C@H]([C@@H](C)O)NC(=O)[C@H](CCN)NC(=O)[C@H](CCN)NC(=O)[C@H](CC(C)C)NC(=O)[C@@H](CC(C)C)NC(=O)[C@H](CCN)NC2=O)[C@@H](C)O)NC(=O)[C@@H](CCN)NC(=O)[C@H](Cc2c[nH]cn2)NC(=O)[C@H](CCN)NC(=O)[C@H](Cc2ccc(O)cc2)NC1=O)C(C)C` [Ex. 365] (I: Ac-VCY[Dab]H[dDab]EWSVCS-NH2 / II: [Dab]T[Dap][Dab][Dab][dL]L[Dab][Dab]T; disulfide I:2-I:11; amide I:7-II:N; lactam II:4-II:C): in data set [1], the “Hemolysis at 200 μg/mL” value was less than 1%. Moreover, the minimal inhibitory concentration (MIC) in data set [2] turned out to be 0.0625 µg/mL (≈ 0.0255 µM); with Escherichia coli 926415, 0.125 µg/mL (≈ 0.051 µM); in data set [5] it was 0.125 µg/mL (≈ 0.051 µM); in data set [6], 0.0625 µg/mL (≈ 0.0255 µM). Moreover, the “Klebsiella pneumoniae SSI #3010 MIC” value in [3] is 0.0625 µg/mL. The “Acinetobacter baumannii DSM 30008 MIC” value in [4] was 0.0625 µg/mL. Further, in data set [7], the “Pseudomonas aeruginosa ATCC 27853 MIC” value is 0.125 µg/mL. Moreover, in data set [8], the “Escherichia coli ATCC 25922 MIC” value is 0.03125 µg/mL. The Mortality and dose in the data set with male ICR mice (setting [9]) is 0/3 died at 2 × 40 mg/kg.

The values are drawn from patent US11629171B2, “Beta-hairpin peptidomimetics” (POLYPHOR AG, priority 2017, dated 2023).
